Assay results taken from patent publication US20080045584A1, “Use of Docetaxel for Treating Hepatocellular Carcinoma” (priority 1999, published 2008).

Columns and labels:
[1] = test system: Hep 3B cells; experiment: Propidium iodide (PI) exclusion assay, flow cytometry; assay type: cell-based, human
Description: (§1) Cells were grown on 5-cm^2 flasks (CORNING) and treated with paclitaxel and docetaxel as set out above. Propidium iodide (10 μg/ml) was then added for 15 minutes incubation at 37° C. Then, medium was collected prior to harvest of the adherent cells. Both suspended and attached cells were collected and resuspended with 500 μl PBS for flow cytometry analysis as set out below. Debris signals were removed by FSC-SSC gating.
(§2) Cells (10000) were analyzed on a Becton Dickinson FACS Calibur flow cytometer using an argon-ion laser (15 mWatt) with incident beam at 488 nm. For PI exclusion assay, red fluorescence was collected through a 585 nm filter and the cell debris signals were removed by FSC-SSC gating. Data were acquired and analyzed using FACS/CELL Quest software on a Power Macintosh 7600/120 computer. Apoptotic cells and cells at specific cycle phases were determined by ModFit LT software.
(§3) Data are mean±standard error of mean from duplicated sample of at least three independent experiments. Cells were treated with drugs for 24-72 hours, and membrane permeability was measured by flowcytometric analysis of propidium exclusion in viable hepatoma cells. Data are the percentage of cells with intact cell membrane as compared to control

[2] = test system: HA22T/VGH cells; experiment: as above; assay type: cell-based, human
Description: as §1, §2, §3

[3] = test system: Hepa 1-6 cells; experiment: as above; assay type: cell-based, murine
Description: as §1, §2, §3

[4] = test system: Hepa 1-6 cells; experiment: Flow cytometric analysis of DNA content (cell cycle, sub-G0/G1); assay type: cell-based, murine
Description: Lysing buffer (0.5% Triton X-100, 0.2 μg/ml Na2EDTA.2H2O, and 1% bovine serum albumin in PBS) was added to the cell pellets which were then left on ice for 15 minutes. 100% methanol pre-cooled to −20° C. was then added to the mixture, which was then centrifuged at 300×g for 5 minutes. The supernatant was discarded and the cell pellet was washed with PBS. The washed pellet was stained with a DNA staining solution (50 μg/ml propidium iodide, and 5 kunitz/ml of RNase A) for 30 minutes at 4° C. in the dark. The DNA content of each cell was measured using a Becton Dickinson FACS Calibur flow cytometer as set out below.
as §2
Table 1 gives figures for cell membrane permeability of the hepatoma cells, following treatment with paclitaxel and docetaxel. Table 2 details the percentage of apoptotic (sub-G0/G1) cells found after paclitaxel and docetaxel treatment.

`CC(=O)O[C@@]12CO[C@@H]1C[C@H](O)[C@@]1(C)C(=O)[C@H](O)C3=C(C)[C@@H](OC(=O)[C@H](O)[C@@H](NC(=O)OC(C)(C)C)c4ccccc4)C[C@@](O)([C@@H](OC(=O)c4ccccc4)[C@H]21)C3(C)C` [Docetaxel] was tested, and the “percentage of cells with intact cell membrane as compared to control” value (shortened to “percentage of cells”) ([1]; 24 hrs, 0.01 μM) was 93.80 ± 10.7%, the “percentage of cells” value ([1]; 24 hrs, 0.1 μM) was 57.41 ± 6.8% and the “percentage of cells” value ([1]; 24 hrs, 1 μM) was 57.39 ± 4.3%. For the same compound, the “percentage of cells” value ([1]; 72 hrs, 0.01 μM) was 36.81 ± 14.7%, the “percentage of cells” value ([1]; 72 hrs, 0.1 μM) was 36.25 ± 13.5% and the “percentage of cells” value ([1]; 72 hrs, 1 μM) was 20.25 ± 14.4%. The “percentage of cells” value ([2]; 24 hrs, 0.01 μM) was 98.66 ± 9.0%, the “percentage of cells” value ([2]; 24 hrs, 0.1 μM) was 38.71 ± 11.2% and the “percentage of cells” value ([2]; 24 hrs, 1 μM) was 40.79 ± 5.0%. For the same compound, the “percentage of cells” value ([2]; 72 hrs, 0.01 μM) was 55.44 ± 5.6%, the “percentage of cells” value ([2]; 72 hrs, 0.01 μM, listed as docetaxel) was 55.44% and the “percentage of cells” value ([2]; 72 hrs, 0.1 μM) was 21.24 ± 0.4%. For the same compound, the “percentage of cells” value ([2]; 72 hrs, 1 μM) was 22.03 ± 3.1%, the “percentage of cells” value ([3]; Hepa 1-6, 24 hrs, 0.01 μM) was 94.45 ± 1.9% and the “percentage of cells” value ([3]; Hepa 1-6, 24 hrs, 0.1 μM) was 83.35 ± 7.2%. For the same compound, the “percentage of cells” value ([3]; Hepa 1-6, 24 hrs, 1 μM) was 81.88 ± 8.7%, the “percentage of cells” value ([3]; Hepa 1-6, 72 hrs, 0.01 μM) was 77.18 ± 1.4% and the “percentage of cells” value ([3]; Hepa 1-6, 72 hrs, 0.1 μM) was 43.94 ± 3.4%. The “percentage of cells” value ([3]; Hepa 1-6, 72 hrs, 1 μM) was 38.90 ± 4.2%, the “% of apoptotic (sub-G0/G1) cells” value ([4]; Hepa 1-6, 24 hrs, 0.01 mM (text: μM)) was 52.81% and the “% of apoptotic (sub-G0/G1) cells” value ([4]; Hepa 1-6, 24 hrs, 0.1 mM (text: μM)) was 50.76%. For the same compound, the “% of apoptotic (sub-G0/G1) cells” value ([4]; Hepa 1-6, 24 hrs, 1 mM (text: μM)) was 53.8%, the “% of apoptotic (sub-G0/G1) cells” value ([4]; Hepa 1-6, 72 hrs, 0.01 mM (text: μM)) was 31.25% and the “% of apoptotic (sub-G0/G1) cells” value ([4]; Hepa 1-6, 72 hrs, 0.1 mM (text: μM)) was 53.95%. The “% of apoptotic (sub-G0/G1) cells” value ([4]; Hepa 1-6, 72 hrs, 1 mM (text: μM)) was 62.49%.
